The values below come from patent US11932839B2, “Microengineered tissue barrier system” (Georgia Tech Research Corporation, priority 2019, dated 2024).

In the assay the test system is human astrocytes (HA). In words: LCN2 expression (qRT-PCR) in human astrocytes stimulated with IL-1β. Format: cell-based. The settings on record: 1 ng/mL or 10 ng/mL IL-1β, 20 h. Here is the method:
In order to compare the structure and function of human astrocytes (HA) in 2D and 3D cultures, HAs were seeded at a density of 1×10^6 cells/mL in Matrigel (Growth factor-reduced; Corning, NY, USA) coated 24-wells and in 3D Matrigel (5 mg/mL). After 1 day of culture, cells were stimulated with 1 ng/mL or 10 ng/mL of recombinant human interleukin-1-beta (IL-1β; Gibco, Grand Island, NY, USA) and incubated for another 20 h for analysis.
The gene expression level of the reactive gliosis marker in 2D or 3D cultured human astrocytes (HA) was confirmed through qRT-PCR analysis. To analyze glial reactivity of HA in 2D and 3D culture system (n=4), standard qRT-PCR was performed with a StepOnePlus Real-Time PCR system (Applied Biosystems) using TaqMan Fast Universal PCR Master Mix (Applied Biosystems). The target genes were assessed using commercially available primers, and the primers used in the experiment are shown in Table 2 below.

In the case of “IL-1β: recombinant human interleukin-1-beta, an inflammatory cytokine”, the “expression level of LCN2” value (HA inside 3D Matrigel, FIG. 41) was “dose-dependently controlled” and the “expression level of LCN2” value (HA on 2D Matrigel-coated surface, FIG. 40) is given as “dose-dependently controlled”.
